# Results: ChEMBL document CHEMBL3112404, “Click chemistry inspired facile synthesis and bioevaluation of novel triazolyl analogs of Ludartin” (Bioorg Med Chem Lett, 2014)
# How the values were obtained:
# MCF7 [1] = assay: Cytotoxicity against human MCF7 cells assessed as growth inhibition at 50 uM by colorimetric sulphorhodamine B assay; assay type: functional; conditions: read-out: GI
# HCT-116 [2] = assay: Cytotoxicity against human HCT116 cells assessed as growth inhibition at 50 uM by colorimetric sulphorhodamine B assay; assay type: functional; conditions: read-out: GI
# PC-3 [3] = assay: Cytotoxicity against human PC3 cells assessed as growth inhibition at 50 uM by colorimetric sulphorhodamine B assay; assay type: functional; conditions: read-out: GI
# A549 [4] = assay: Cytotoxicity against human A549 cells assessed as growth inhibition at 50 uM by colorimetric sulphorhodamine B assay; assay type: functional; conditions: read-out: GI
# T98G [5] = assay: Cytotoxicity against human T98G cells assessed as growth inhibition at 50 uM by colorimetric sulphorhodamine B assay; assay type: functional; conditions: read-out: GI
# MCF7 [6] = assay: Cytotoxicity against human MCF7 cells assessed as growth inhibition by colorimetric sulphorhodamine B assay; assay type: functional, cell-based
# HCT-116 [7] = assay: Cytotoxicity against human HCT116 cells assessed as growth inhibition by colorimetric sulphorhodamine B assay; assay type: functional, cell-based
# PC-3 [8] = assay: Cytotoxicity against human PC3 cells assessed as growth inhibition by colorimetric sulphorhodamine B assay; assay type: functional, cell-based
# A549 [9] = assay: Cytotoxicity against human A549 cells assessed as growth inhibition by colorimetric sulphorhodamine B assay; assay type: functional, cell-based
# T98G [10] = assay: Cytotoxicity against human T98G cells assessed as growth inhibition by colorimetric sulphorhodamine B assay; assay type: functional, cell-based
Compound,inhibition of growth at 50 µM (MCF7 [1]) [%],inhibition of growth at 50 µM (HCT-116 [2]) [%],inhibition of growth at 50 µM (PC-3 [3]) [%],inhibition of growth at 50 µM (A549 [4]) [%],inhibition of growth at 50 µM (T98G [5]) [%],IC50 (MCF7 [6]) [µM],IC50 (HCT-116 [7]) [µM],IC50 (PC-3 [8]) [µM],IC50 (A549 [9]) [µM],IC50 (T98G [10]) [µM]
COc1ccc(-n2cc(CNC[C@@H]3C(=O)O[C@H]4[C@H]3CCC(C)=C3C[C@H]5O[C@@]5(C)[C@@H]34)nn2)cc1,0,0,0,20,0,–,–,–,–,–
CC1=C2C[C@H]3O[C@@]3(C)[C@@H]2[C@H]2OC(=O)[C@@H](CNCc3cn(-c4ccccc4[N+](=O)[O-])nn3)[C@@H]2CC1,0,0,0,17,0,–,–,–,–,–
CC1=C2C[C@H]3O[C@@]3(C)[C@@H]2[C@H]2OC(=O)[C@@H](CNCc3cn(-c4cccc([N+](=O)[O-])c4)nn3)[C@@H]2CC1,0,0,0,0,0,–,–,–,–,–
CC1=C2C[C@H]3O[C@@]3(C)[C@@H]2[C@H]2OC(=O)[C@@H](CNCc3cn(-c4ccc([N+](=O)[O-])cc4)nn3)[C@@H]2CC1,0,0,0,26,0,–,–,–,–,–
CC1=C2C[C@H]3O[C@@]3(C)[C@@H]2[C@H]2OC(=O)[C@@H](CNCc3cn(-c4ccccc4C#N)nn3)[C@@H]2CC1,12,20,22,46,42,–,–,–,–,–
CC1=C2C[C@H]3O[C@@]3(C)[C@@H]2[C@H]2OC(=O)[C@@H](CNCc3cn(-c4cccc(C#N)c4)nn3)[C@@H]2CC1,0,0,0,10,0,–,–,–,–,–
CC1=C2C[C@H]3O[C@@]3(C)[C@@H]2[C@H]2OC(=O)[C@@H](CNCc3cn(-c4ccc(C#N)cc4)nn3)[C@@H]2CC1,0,0,0,0,0,–,–,–,–,–
CC1=C2C[C@H]3O[C@@]3(C)[C@@H]2[C@H]2OC(=O)[C@@H](CNCc3cn(-c4ccc(F)cc4F)nn3)[C@@H]2CC1,29,0,21,19,12,–,–,–,–,–
CC1=C2C[C@H]3O[C@@]3(C)[C@@H]2[C@H]2OC(=O)[C@@H](CNCc3cn(-c4cccc(CO)c4)nn3)[C@@H]2CC1,13,11,0,47,0,–,–,–,–,–
CC1=C2C[C@H]3O[C@@]3(C)[C@@H]2[C@H]2OC(=O)[C@@H](CNCc3cn(-c4ccc(C)c(C)c4)nn3)[C@@H]2CC1,84,49,46,73,99,8.5,39,38,11,12
CC1=C2C[C@H]3O[C@@]3(C)[C@@H]2[C@H]2OC(=O)[C@@H](CNCc3cn(-c4cc(Cl)c(Cl)cc4Cl)nn3)[C@@H]2CC1,81,74,73,91,77,12,18,11,21,17
CC1=C2C[C@H]3O[C@@]3(C)[C@@H]2[C@H]2OC(=O)[C@@H](CNCc3cn(-c4ccccc4)nn3)[C@@H]2CC1,77,58,56,77,73,21,37,54,24,21
CC1=C2C[C@H]3O[C@@]3(C)[C@@H]2[C@H]2OC(=O)[C@@H](CNCc3cn(-c4cccc5ccccc45)nn3)[C@@H]2CC1,0,48,8,21,32,–,–,–,–,–
CC1=C2C[C@H]3O[C@@]3(C)[C@@H]2[C@H]2OC(=O)[C@@H](CNCc3cn(-c4ccccc4Cl)nn3)[C@@H]2CC1,12,6,28,32,37,–,–,–,–,–
CC1=C2C[C@H]3O[C@@]3(C)[C@@H]2[C@H]2OC(=O)[C@@H](CNCc3cn(-c4ccccc4Br)nn3)[C@@H]2CC1,22,79,0,68,17,–,26,–,24,–
CC1=C2C[C@H]3O[C@@]3(C)[C@@H]2[C@H]2OC(=O)[C@@H](CNCc3cn(-c4ccc(Br)cc4)nn3)[C@@H]2CC1,79,72,28,74,58,32,35,–,39,52
COc1ccccc1-n1cc(CNC[C@@H]2C(=O)O[C@H]3[C@H]2CCC(C)=C2C[C@H]4O[C@@]4(C)[C@@H]23)nn1,0,38,40,21,34,–,–,–,–,–
COc1cccc(-n2cc(CNC[C@@H]3C(=O)O[C@H]4[C@H]3CCC(C)=C3C[C@H]5O[C@@]5(C)[C@@H]34)nn2)c1,6,0,0,8,0,–,–,–,–,–
C=C1C(=O)O[C@H]2[C@H]1CCC(C)=C1C[C@H]3O[C@@]3(C)[C@@H]12 [LUDARTIN],100,97,97,97,97,0.5,–,–,–,6.3
